Measured values: patent US11439659B2, “Methods and compositions to prevent and treat inflammation and allergic reactions” (priority 2018, dated 2022)

Experiments:
[1] = test system: DSS colitis; assay: Mouse model of DSS colitis; format: in vivo
Experimental: Mouse model of DSS colitis. WT or Ella/hyal1 mice provided 3% DSS in their drinking water for 7 days and body weight measured every day. For HA digestion by PEGPH20, Mice were intravenously injected PEGPH20 (10 mg/kg) every 3 days 24 hour prior to start DSS water feeding. For Adipogenesis inhibition by PPARg inhibitor, Mice were intraperitonealy injected 120 mg/kg every single day 48 hour prior to start DSS water feeding. Mice were sacrificed after 5 and 7 days. Distal colon, mesenteric fat and blood were collected for RNA, Bacterial culture assay and toxin analysis.
(§1) Reverse transcription-quantitative PCR (RTqPCR) analyses. RTqPCR was used to determine the mRNA abundance. Total cellular RNA was extracted using the PureLink RNA Mini Kit(Life Technologies Corporation, Grand Island, N.Y.) and mRNA were purified by using Dynabeads mRNA Purification Kit(Life technologies). 100 ng of mRNA was reverse transcribed to cDNA using iScript cDNA synthesis kit (BIO-RAD LABORATORIES, INC, Hercules, Calif.). Quantitative, real-time PCR was performed on the CFX96 real time system (Biorad) using predeveloped Taqman gene expression assay (Applied Biosystems). The expression of βActin gene was used as a house keeping gene to normalize data.
(§2) Histology and immunohistochemistry (IHC). Tissue biopsies were directly embedded in OCT compound or paraffin. Paraffin embedded tissues are used for Hematoxylin/Eosin (H&E) staining, and frozen sections were fixed in 4% PFA for 20 mins or 100% Aceton prior to immunofluorescence staining. For IHC, fixed and permeabilized tissue sections were blocked with Image-iT FX reagent (invitrogen) before incubating with primary antibodies followed by appropriate 488- or 568-coupled secondary antibodies. Nuclei were counterstained with DAPI. All images were taken with an Olympus BX41 microscope (widefield) or Zeiss LSM510 confocal microscope as indicated.
Flow cytometry analyses. Colon collected from control or DSS-treated mice was cut into small pieces then digested with 2.5 mg/mL Collagenase D and 30 ng/mL DNAse1 for 2 hours at 37° C. then filtered through a 30 μm filter to generate single cell suspension for FACS analyses. Cells were then stained with zombie violet viability dye (BioLegend, 423114), blocked with anti-mouse CD16/32 (eBioscience, 14016185), followed by staining with antibody cocktails for preadipocytes or immune cells. The antibody cocktail for preadipocytes includes AF488-SMA (eBioscience, 53976082), PECy7-CD45 (BioLegend, 147704), PerCy5.5-CD31 (BioLegend, 102522), PE-Thyl (BioLegend, 105308), APC-PDGFRa (eBioscience, 17140181), BV605-SCA1 (BioLegend, 108133) and AF700-CD24 (BioLegend, 108136). The antibody cocktail for immune cells includes PECy7-CD11b (BioLegend, 101216), FITC-Ly6G (eBioscience, 11593182), PE-F4/80 (eBioscience,12480182), APC-CD11C (BioLegend, 117310), AF700-MHCII (eBioscience, 56532182) and APC-Cy7-CD3 (BioLegend, 100222). FACS analyses for surface expression of preadipocyte or immune cell markers were performed by the BD FACSCanto RUO machine and analyzed by FlowJo V10 software. Dead cells stained positive with zombie violet dye were excluded from the analyses.
Serum Endotoxin analyses. Mouse serum was separated from mouse whole blood using serum separator tubes (Becton, Dickinson and Company). Mouse serum Endotoxin levels were quantified by ToxinSensor Chromogenic LAL Endotoxin Assay Kit (GenScript).
Hyaluronan (HA) analysis. Glucosaminoglycan (GAG) including HA were extracted from 3T3L1 supernatant and Murine skin and colon. Samples were homogenized and treated overnight with protease (0.16 mg/ml; Sigma-Aldrich) to degrade protein, followed by purification by anion exchange chromatography using DEAE sephacel (Amersham Biosciences). Columns were washed with a low-salt buffer (0.15 M NaCl in 20 mM sodium acetate; pH 6.0) and eluted with 1 M NaCl. Glycans were desalted by PD10 (GE Healthcare). HA concentration were measured ELISA Duo Set (R&D Systems). […]

[2] = mouse, in vivo
[3] = test system: S. aureus strain USA300/MRSA skin infection; assay: Mouse model of S. aureus skin infection; format: in vivo
Experimental: Mouse model of S. aureus skin infection. Staphylococcus aureus strain USA300/MRSA was used for infection. Briefly, the backs of sex-matched and age-matched adult wildtype or Ella/Hyal1 mice were shaved and hair removed by chemical depilation (Nair) then injected subcutaneously with 100 μl of a mid-logarithmic growth phase of S. aureus (2×10^6 CFU of bacteria) in PBS. Mice were sacrificed after day 3 and 8 mm skin punch biopsy comprising the center of the injection site was harvested. Infected skin surrounding the infection center (6˜8 mm) avoid of center abscess was carefully dissected out for RNA extraction or CFU determination. Skin biopsies were homogenized in 1 ml Trizol (for RNA) or PBS (for CFU counting) with 2 mm zirconia beads in a mini-bead beater 16 (Biospect, Bartlesville, Okla.). To count CFU, homogenized skin samples were serially diluted, plated onto Tryptic Soy Agar, and enumerated after 18 hours to quantify the CFU per gram of tissue. For some experiments, PEGPH20(10 mg/kg) was injected intravenously starting from 1 day prior to infection, and vehicle (10 mmol/L histidine, 130 mmol/L NaCl at pH 6.5) was used as control.
as §1, §2

[4] = test system: mouse preadipocytes (3T3L1); assay: In vitro adipocyte differentiation of 3T3L1 preadipocytes; format: cell-based
Experimental: Preadipocyte culture. The preadipocyte cell line 3T3-L1 was purchased from ATCC (CL-173) lot 59239597. 3T3-L1 cells were grown in preadipocyte proliferation medium stock (Cell applications, San Diego, Calif.), and P4˜P7 cells were used for in vitro differentiation. To induce differentiation, two days post-confluent 3T3-L1 cells were switched to adipocyte differentiation medium containing insulin, dexamethasone, and IBMX. (Cell applications, San Diego, Calif.), and medium was changed to fresh medium at day 2 and 4. To generate differentiated adipocytes for comparison studies between 3T3-L1 preadipocytes and adipocytes, 3T3-L1 cells were differentiated for 3 days followed by two days culture in Preadipocyte growth media. (Cell applications, San Diego, Calif.) before RNA or protein extraction.
as §1
Hyaluronan (HA) analysis. Glucosaminoglycan (GAG) including HA were extracted from 3T3L1 supernatant and Murine skin and colon. Samples were homogenized and treated overnight with protease (0.16 mg/ml; Sigma-Aldrich) to degrade protein, followed by purification by anion exchange chromatography using DEAE sephacel (Amersham Biosciences). Columns were washed with a low-salt buffer (0.15 M NaCl in 20 mM sodium acetate; pH 6.0) and eluted with 1 M NaCl. Glycans were desalted by PD10 (GE Healthcare). HA concentration were measured ELISA Duo Set (R&D Systems). The size distribution of HA was analyzed by agarose gel electrophoresis 41. The HA sample was mixed with TAE buffer containing 2 M sucrose and electrophoresed at 2 V/cm for 10 hours at room temperature. The gel was stained overnight under light-protective cover at room temperature in a solution containing 0.005% Stains-All in 50% ethanol, and destained in water. Hyalose ladders (Hyalose) were used for standards.

[5] = BADGE compared with hyaluronidase
[6] = 3T3L1 differentiation, 20 ug/ml PEGPH20

Compound	magnitude of inhibition of inflammation of the colon [1, 5]	preventing DSS induced colon injury (colon length, histology, microbial translocation) [1, 5]	expression of TNFα in colon ([1]; DSS colitis, BADGE 120 mg/kg intraperitoneally every day from 48 hour prior to DSS)	Pref-1 expression in the colon ([1]; PPARg inhibitor)	effect on health or behavior of mice [2]	decrease in body weight ([1]; 3% DSS, by day 5)	expression of tumor necrosis factor alpha (TNFα) in colon ([1]; DSS colitis, hyaluronidase delivery, vs control colitis group)	gross inflammatory response of the colon to DSS ([1]; mouse, in vivo)	lesion size ([3]; S. aureus skin infection)	expression of Camp ([3]; infected skin)	expression of IL-6 ([3]; infected skin)	gross inflammatory response of the skin to infection ([3]; mouse, in vivo)	lipid droplets within cells (Bodipy) ([4]; 3T3L1, day 2 of differentiation, 20 ug/ml PEGPH20)	expression of Zfp521 mRNA [4, 6]	expression of adiponectin (Adipoq) mRNA [4, 6]	expression of antimicrobial peptide cathelicidin (Camp) [4, 6]	expression of zfp423 mRNA ([4]; adipocyte differentiation with added hyaluronidase)	adipogenesis / adipocyte differentiation in vitro ([4]; cultured preadipocytes)
CC(C)(c1ccc(OCC2CO2)cc1)c1ccc(OCC2CO2)cc1 (stereo not drawn) [BADGE, Bisphenol A diglycidyl ether]	less	lesser effect than hyaluronidase	inhibited expression	inhibited														
hyaluronidase					No effect	lesser decrease in body weight	decreased expression	significant decrease	decreased lesion size	decreased	decreased expression	significant decrease	decreased lipid droplets	decreased mRNA	decreased mRNA	decreased	decreased mRNA	inhibited adipocyte differentiation
